Measured values taken from patent US20250230193A1, “CYCLIC COMPOUND HAVING SELECTIVE KRAS INHIBITORY EFFECT ON HRAS AND NRAS” (CHUGAI SEIYAKU KABUSHIKI KAISHA, priority 2022, published 2025).
Where a SMILES comes first, the peptide text is derived from it. Bridges are numbered along the chain shown (N, C = ends). [ ]: non-standard residue; d: D form. The star is where a group is joined. hPhe(3-Cl-4-CF3) = N[C@@H](CCc1ccc(C(F)(F)F)c(Cl)c1)C(=O)O; NPrPhe(4-CF3) = CCCN[C@@H](Cc1ccc(C(F)(F)F)cc1)C(=O)O; NMeGly(cPent) = CN[C@H](C(=O)O)C1CCCC1; NMeD = CN[C@@H](CC(=O)O)C(=O)O; NMeL = CN[C@@H](CC(C)C)C(=O)O; Pip = O=C(O)[C@@H]1CCCCN1; Morpholide = C1CN(*)CCO1; Ac5c = NC1(C(=O)O)CCCC1; NEtG = CCNCC(=O)O; Sar = CNCC(=O)O

What was measured:
[1] = target: GDP-bound HRAS wild-type protein (Homo sapiens, UniProt P01112); test: Binding to HRAS by surface plasmon resonance (SPR), Single Cycle Kinetics
GDP-bound HRAS wild-type protein, sequence (P01112 whole entry): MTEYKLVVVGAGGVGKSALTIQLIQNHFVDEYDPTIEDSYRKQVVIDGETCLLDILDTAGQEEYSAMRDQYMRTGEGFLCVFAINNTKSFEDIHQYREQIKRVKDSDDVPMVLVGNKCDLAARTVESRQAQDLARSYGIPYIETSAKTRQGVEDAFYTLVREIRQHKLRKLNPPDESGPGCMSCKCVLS

[2] = target: GDP-bound NRAS wild-type protein (Homo sapiens, UniProt P01111); test: Binding to NRAS by surface plasmon resonance (SPR), Single Cycle Kinetics
GDP-bound NRAS wild-type protein, sequence (P01111 whole entry): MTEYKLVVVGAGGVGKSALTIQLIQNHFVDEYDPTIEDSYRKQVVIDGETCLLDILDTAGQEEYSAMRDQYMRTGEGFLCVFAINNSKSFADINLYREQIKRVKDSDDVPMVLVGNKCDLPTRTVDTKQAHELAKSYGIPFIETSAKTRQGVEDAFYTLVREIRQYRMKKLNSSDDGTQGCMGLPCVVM

[3] = KD ratio, GDP-bound HRAS wild-type vs GDP-bound KRAS wild-type, SPR
[4] = KD ratio, GDP-bound NRAS wild-type vs GDP-bound KRAS wild-type, SPR

CCC[C@H]1C(=O)N[C@H]([C@@H](C)CC)C(=O)N2C[C@@H](OC)C[C@H]2C(=O)N(C)[C@H]2C/C=C\CCN(C2=O)[C@@H](Cc2ccc(C)cc2)C(=O)N(C)CC(=O)N[C@@H](CCc2ccc(C(F)(F)F)c(Cl)c2)C(=O)N2C[C@H](OCC)C[C@H]2C(=O)NC2(CCC2)C(=O)N(C)[C@@H](C2CCCC2)C(=O)N(C)[C@H](C(=O)N(C)C)CC(=O)N1C (stereo in doubt) [PP2552]
HRAS/KRAS (ratio of KD value with respect to GDP-bound HRAS wild-type protein to KD value with respect to KRAS) ([1]; KD ratio HRAS/KRAS, class symbols): B (a compound having 3 or more and less than 10 is denoted as B) | NRAS/KRAS (ratio of KD value with respect to GDP-bound NRAS wild-type protein to KD value with respect to KRAS) ([2]; KD ratio NRAS/KRAS, class symbols): A (a compound having 10 or more and less than 20 is denoted as A)

CCO[C@@H]1C[C@H]2C(=O)NC3(CCC3)C(=O)N(C)[C@@H](C3CCCC3)C(=O)N(C)[C@H](C(=O)N(C)C)CC(=O)N(C)[C@@H](CC(C)C)C(=O)N[C@@H]([C@@H](C)CC)C(=O)N(C)CC(=O)N(C)[C@H]3CCCCCN(C3=O)[C@@H](Cc3ccc(F)cc3)C(=O)N(C)CC(=O)N[C@@H](CCc3ccc(C(F)(F)F)c(Cl)c3)C(=O)N2C1 [PP0972]
HRAS/KRAS (ratio of KD value with respect to HRAS to KD value with respect to KRAS) [1, 3]: B (a compound having 3 or more and less than 10 is denoted as B) | NRAS/KRAS (ratio of KD value with respect to NRAS to KD value with respect to KRAS) [2, 4]: B (a compound having 3 or more and less than 10 is denoted as B)

CCO[C@@H]1C[C@H]2C(=O)NC3(CCCC3)C(=O)N(C)[C@@H](C3CCCC3)C(=O)N(C)[C@H](C(=O)N(C)C)CC(=O)N(C)[C@@H](CC(C)C)C(=O)N[C@@H]([C@@H](C)CC)C(=O)N(C)CC(=O)N(C)[C@H]3C[C@@H](C)CCN(C3=O)[C@@H](Cc3ccc(C(F)(F)F)cc3)C(=O)N(C)CC(=O)N[C@@H](CCc3cc(F)c(C(F)(F)F)c(F)c3)C(=O)N2C1 [PP1017]
HRAS/KRAS (ratio of KD value with respect to HRAS to KD value with respect to KRAS) [1, 3]: B (a compound having 3 or more and less than 10 is denoted as B) | NRAS/KRAS (ratio of KD value with respect to NRAS to KD value with respect to KRAS) [2, 4]: C (A compound having a KD ratio of 0.1 or more and less than 3 is denoted as C)

CCO[C@@H]1C[C@H]2C(=O)NC3(CC(C)(C)C3)C(=O)N(C)[C@@H](C3CCCC3)C(=O)N(C)[C@H](C(=O)N(C)C)CC(=O)N(C)[C@@H](C)C(=O)N[C@@H]([C@@H](C)CC)C(=O)N(C)CC(=O)N(C)[C@H]3C/C=C\CCN(C3=O)[C@@H](Cc3ccc(C(F)(F)F)cc3)C(=O)N(C)CC(=O)N[C@@H](CCc3cc(F)c(C(F)(F)F)c(F)c3)C(=O)N2C1 [PP1641]
HRAS/KRAS (ratio of KD value for HRAS to KD value for KRAS) [1, 3]: A (a compound having 10 or more and less than 20 is denoted as A) | NRAS/KRAS (ratio of KD value for NRAS to KD value for KRAS) [2, 4]: A (a compound having 10 or more and less than 20 is denoted as A)

CCC[C@H]1C(=O)N[C@@H]([C@@H](C)CC)C(=O)N(C)CC(=O)N(C)[C@H]2C/C=C\CCN(C2=O)[C@@H](Cc2ccc(C(F)(F)F)cc2)C(=O)N(C)CC(=O)N[C@@H](CCc2ccc(C(F)(F)F)c(Cl)c2)C(=O)N2CC3(CC3)C[C@H]2C(=O)NC2(CC(C)(C)C2)C(=O)N(C)[C@@H]([C@@H](C)CC)C(=O)N(C)[C@H](C(=O)N(C)C)CC(=O)N1C [PP2983]
HRAS/KRAS (ratio of KD value with respect to GDP-bound HRAS wild-type protein to KD value with respect to KRAS) ([1]; KD ratio HRAS/KRAS, SPR, GDP-bound wild-type proteins): A (a compound having 10 or more and less than 20 is denoted as A) | NRAS/KRAS (ratio of KD value with respect to GDP-bound NRAS wild-type protein to KD value with respect to KRAS) ([2]; KD ratio NRAS/KRAS, SPR, GDP-bound wild-type proteins): AA (a compound having 20 or more is denoted as AA)

CCCN1C(=O)CN(C)C(=O)CN(CC)C(=O)[C@H]([C@@H](C)CC)NC(=O)[C@H](CC(C)C)N(C)C(=O)C[C@@H](C(=O)N2CCOCC2)N(C)C(=O)[C@H](C2CCCC2)N(C)C(=O)C2(CCCC2)NC(=O)[C@@H]2CCCCN2C(=O)[C@H](CCc2ccc(C(F)(F)F)c(Cl)c2)NC(=O)CN(C)C(=O)[C@@H]1Cc1ccc(C(F)(F)F)cc1 [PP0297] ([NMeL]I[NEtG][Sar][NPrPhe(4-CF3)][Sar][hPhe(3-Cl-4-CF3)][Pip][Ac5c][NMeGly(cPent)][NMeD]-Morpholide; lactam N-11)
HRAS/KRAS (ratio of KD for GDP-bound HRAS wild-type to KD for KRAS) ([1]; KD ratio HRAS/KRAS, SPR): C (A compound having a KD ratio of 0.1 or more and less than 3 is denoted as C) | NRAS/KRAS (ratio of KD for GDP-bound NRAS wild-type to KD for KRAS) ([2]; KD ratio NRAS/KRAS, SPR): B (a compound having 3 or more and less than 10 is denoted as B)

CCO[C@@H]1C[C@H]2C(=O)NC3(CCC3)C(=O)N(C)[C@@H]([C@H](C)CC)C(=O)N(C)[C@H](C(=O)N3CCOCC3)CC(=O)N(C)[C@@H](CC(C)C)C(=O)N[C@@H]([C@@H](C)CC)C(=O)N(C)CC(=O)N(C)[C@H]3CCCCCN(C3=O)[C@@H](Cc3ccc(C(F)(F)F)cc3)C(=O)N(C)CC(=O)N[C@@H](CCc3cc(F)c(C(F)(F)F)c(F)c3)C(=O)N2C1 [PP0821]
HRAS/KRAS (ratio of KD value with respect to HRAS to KD value with respect to KRAS) [1, 3]: B (a compound having 3 or more and less than 10 is denoted as B) | NRAS/KRAS (ratio of KD value with respect to NRAS to KD value with respect to KRAS) [2, 4]: A (a compound having 10 or more and less than 20 is denoted as A)
